Assay results: PubChem BioAssay AID624491 (Broad Institute, 2012)

What follows are compounds tested on D54 ERlucT glycosylation luciferase reporter, luminescence, 24 h (assay: blockers of NLG process in reporter cells – D54 ERlucT cells, luminescence, cherry-picks, dose response (AID 624491);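 further: signal gain reflects blocked N-linked glycosylation of a luciferase reporter; actives raise luciferase signal so AC26 marks activators of the reporter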).

Row | SMILES | AC26 [nM]
1 | Cc1cc(-c2nnc3n2N=C(c2ccc(-c4ccccc4)cc2)CS3)n[nH]1 | 2760
2 | CN(Cc1ccccc1)c1nc2c(c(=O)[nH]c(=O)n2C)n1CCCc1ccccc1 | 2830
3 | C[C@@]12C(=O)Nc3cc(F)c(F)cc3C(=O)N1[C@H]1c3cc(Cl)ccc3OC[C@@H]1[C@@H]2c1ccccc1 | 789
4 | CCN(CC)c1ccc(/C=N/n2nnnc2N)c(O)c1 | 3410
5 | O=C(COC(=O)c1cccc(Br)c1)Nc1cccc2c1C(=O)c1ccccc1C2=O | 4290
6 | O=C(NCC1CCCO1)c1cc(-c2ccccc2)on1 (centres undefined) | 6450
7 | O=c1cc(-c2ccccc2)[nH]c2cc(F)ccc12 | 327
8 | COc1cc(/C=N/NC(=O)c2cc(-c3cccn3C)n[nH]2)cc(OC)c1OC | 1730
9 | Cc1ccc(C)c(OCC(O)CN2CCN(CCN3C(=O)c4cccc5cccc(c45)C3=O)CC2)c1 (centres undefined) | 755
10 | COc1cc2[nH]c(C(=O)Nc3ccc(F)cc3)cc2c(OC)c1OC | 742
11 | CC(C)c1ccc(/C=N/NC(=O)c2ccccc2Cl)cc1 | 1910
12 | CC(=O)Nc1sc(C)c(C)c1C(=O)OCC(=O)Nc1ccccc1 | 4780
13 | CCN(CC)CCN1C(=O)c2cccc3cc(N)cc(c23)C1=O | 1140
14 | COc1ccc(CC(=O)N(Cc2ccccc2)c2ccc(C)cc2)cc1OC | 716
15 | FC(F)(F)c1cccc(Sc2nc(-c3ccccc3)nnc2C(F)(F)F)c1 | 2340
16 | COc1ccc(-c2nc(C(N)=O)c3[nH]c(=O)n(-c4cccc(Cl)c4)c3n2)cc1OC | 5880
17 | CC1(C(=O)NCc2ccco2)Cc2c(-c3cccc(C(N)=O)c3)ccnc2O1 (centres undefined) | 1450
18 | Cc1[nH]c(C)c(C(=O)/C=C/c2ccc([N+](=O)[O-])cc2)c1C | 633
19 | O=C(/C=C/Sc1ccccc1)c1ccc(Cl)cc1 | 727
20 | Nc1cccc2c1C(=O)N(C(=O)/C=C/c1ccc(F)cc1)C2=O | 6790
21 | COc1cc(/C=N/NC(=O)c2cc(-c3c(C)nn(-c4ccccc4)c3C)n[nH]2)ccc1O | 1390
22 | Cc1ccc(C(=O)N/C(=C/c2ccco2)C(=O)NCCc2c[nH]c3ccccc23)cc1 | 2670
23 | O=C1[C@H]2[C@@H](c3ccc(F)cc3)N3C(=O)N(c4cccc(Br)c4)C(=O)[C@@]3(Cc3ccccc3)[C@H]2C(=O)N1C1CCCCC1 | 114
24 | NC(=O)CC(NC(=O)Cc1ccc(Cl)cc1)c1ccc(NC2CCN(Cc3ccccc3)CC2)c([N+](=O)[O-])c1 (centres undefined) | 480
25 | CCCOc1ccc2ccccc2c1/C=N/n1c(C)nnc1-n1nc(C)cc1C | 503
26 | CCOc1ccc(OCC(=O)N(CCC2=CCCCC2)c2c(N)n(Cc3ccccc3)c(=O)[nH]c2=O)cc1 | 4380
27 | CN(C)C(=O)c1cccc(-c2cnc3c(NC=O)cc(-c4ccccc4Cl)cn23)c1 | 6820

Row | SMILES | AC26 [nM]
28 | COc1ccc(OC)c(S(=O)(=O)Nc2ccc3c(c2)n(C)c(=O)n3C)c1 | 3320
29 | COc1ccccc1NC1=NC(c2ccc(Cl)cc2)N=C(N)N1 (centres undefined) | 1370
30 | COc1ccc2c(c1)[C@H]1[C@H](CO2)[C@H](c2ccccc2)[C@]2(C)C(=O)Nc3cc(F)ccc3C(=O)N12 | 19
31 | CCC(CC)Nc1ccc(C(CC(N)=O)NC(=O)Cc2ccc(Br)cc2)cc1[N+](=O)[O-] (centres undefined) | 4130
32 | Cn1nc(C(=O)Nc2cccc(S(=O)(=O)N3CCCC3)c2)c2ccccc2c1=O | 666
33 | Cc1cc(Cl)ccc1OCCCC(=O)NO | 2730
34 | O=C(NCCN1C(=O)S/C(=C\c2ccccc2Cl)C1=O)C1=COCCO1 | 7850
35 | CC1(C(=O)NCc2cccs2)Cc2c(-c3cccc(C(F)(F)F)c3)ccnc2O1 (centres undefined) | 15100
36 | O=C(CCl)Nc1cn(-c2ccccc2)nc1-c1ccc(F)cc1 | 3860
37 | CCCCCCC(=O)N(O)C1CC(=O)N(c2ccc(Br)cc2)C1=O (centres undefined) | 689
38 | CCOC(=O)c1sc(Nc2nc(C)cc(C)n2)nc1C | 949
39 | Cc1ccc2oc(C(=O)NCc3ncc(C)[nH]3)c(C)c2c1 | 6750
40 | O=C1Cc2c([nH]c3ccc(Br)cc23)-c2ccccc2N1 | 351
41 | O=C(c1ccc(Cl)c(S(=O)(=O)N2CCCCC2)c1)N1CCN(Cc2ccccc2)CC1 | 4150
42 | Oc1cc(Nc2ccccc2)cc2cccnc12 | 1030
43 | CCOC(=O)/C(=C\c1ccccc1)C(=O)c1cc(C(C)=O)c(Nc2ccccc2)s1 | 1150
44 | Cn1c(=O)n(C)c2cc(NS(=O)(=O)c3ccc4c(c3)CCCC4)ccc21 | 2670
45 | Nc1ncnc(Sc2ccc(Cl)cc2)c1[N+](=O)[O-] | 13400
46 | N=c1c(S(=O)(=O)c2ccc(Cl)cc2)cc2c(=O)n3ccccc3nc2n1CCc1ccccc1 | 122
47 | COc1cc2c(cc1OC)CN(c1ccc(-c3ccccc3OC)nn1)CC2 | 3380
48 | Nc1ccc2nc(-c3ccccc3)c(-c3ccccc3)nc2c1 | 1480
49 | COc1cc2c(cc1OC)C(c1cccs1)N(C(=O)c1cccc(S(=O)(=O)N(C)C)c1)CC2 (centres undefined) | 1320
50 | Nc1c(N(Cc2ccccc2)C(=O)COc2ccc([N+](=O)[O-])cc2)c(=O)[nH]c(=O)n1Cc1ccccc1 | 389
51 | COc1ccc(-c2cnc3c(NC=O)cc(-c4ccccc4)cn23)cc1OC | 97.1
52 | Cc1ccc(S(=O)(=O)Nc2ccc3c(c2)n(C)c(=O)n3C)cc1 | 1460
53 | O=c1[nH]c(CSc2ncnc3sc(-c4ccccc4)cc23)nc2ccccc12 | 4470
54 | CCc1cc2c(=O)n(Cc3ccco3)c(SCc3c(C)noc3C)nc2s1 | 249
